Drawing on ChEMBL document CHEMBL1131265, “The de novo design and synthesis of cyclic urea inhibitors of factor Xa: initial SAR studies” (Bioorg Med Chem Lett, 1998), this text covers Ki for eight compounds.

Where only a bound is given, the exact number is not on record here.

Test [1] addresses T1, Serine protease 1 (Homo sapiens, UniProt P07477). As to the kind of experiment: Compound was tested for inhibition of trypsin.
The target of a further test is Coagulation factor X (Homo sapiens, UniProt P00742). Put plainly: Compound was tested for inhibition of blood coagulation factor X.
Coagulation factor X, sequence (P00742 41-179 limits assumed): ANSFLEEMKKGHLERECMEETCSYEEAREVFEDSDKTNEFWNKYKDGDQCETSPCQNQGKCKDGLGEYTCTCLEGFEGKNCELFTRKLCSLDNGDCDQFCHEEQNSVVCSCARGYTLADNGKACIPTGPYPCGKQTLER
Coagulation factor X, sequence (P00742 235-488 limits assumed): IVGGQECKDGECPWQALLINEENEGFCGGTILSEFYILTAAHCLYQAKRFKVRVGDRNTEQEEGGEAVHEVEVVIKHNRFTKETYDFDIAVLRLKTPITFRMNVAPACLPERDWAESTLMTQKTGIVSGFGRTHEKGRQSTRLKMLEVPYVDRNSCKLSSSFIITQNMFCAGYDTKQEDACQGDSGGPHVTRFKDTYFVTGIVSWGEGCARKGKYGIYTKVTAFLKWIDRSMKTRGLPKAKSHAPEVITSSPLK
A further test addresses Prothrombin (Homo sapiens, UniProt P00734). Put plainly: Compound was tested for inhibition of thrombin. Set-up: species or system Oryctolagus cuniculus.
Test [2] has as its target T1, Serine protease 1. Put plainly: Compound was tested for inhibition of trypsin.

T1 sequence (P07477 whole entry): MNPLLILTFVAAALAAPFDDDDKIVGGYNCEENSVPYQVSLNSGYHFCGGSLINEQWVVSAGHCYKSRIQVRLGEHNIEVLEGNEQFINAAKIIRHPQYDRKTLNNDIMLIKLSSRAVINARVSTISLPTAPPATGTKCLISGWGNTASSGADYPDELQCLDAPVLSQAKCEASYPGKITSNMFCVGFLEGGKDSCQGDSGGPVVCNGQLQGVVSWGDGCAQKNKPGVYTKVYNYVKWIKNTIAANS

By Ki is commonly meant a dissociation constant, usually derived from enzyme kinetics or from competition with a known ligand. Read a high Ki as lower affinity. Turning to `CC(=N)N1CC[C@H](Oc2ccc(C(Cc3ccc4ccc(C(=N)N)cc4c3)C(=O)O)cc2)C1` (some centres undefined), the Ki on Serine protease 1 [1] was found to be 1100 nM.

`N=C(N)c1cccc(NC(=O)NC2CCN(Cc3ccccc3)CC2)c1`: the Ki is 4900 nM on Coagulation factor X, more than 21 µM on Prothrombin and more than 1200 nM on Serine protease 1 [2].

In the case of `N=C(N)c1cccc(N2CCCCN(C3CCN(C(=N)N)CC3)C2=O)c1`, the Ki on Coagulation factor X is 2500 nM; on Prothrombin, more than 21 µM.

For `N=C(N)c1cccc(N2CCCN(C3CCN(Cc4ccccc4)CC3)C2=O)c1`, the Ki was 400 nM at Coagulation factor X and 7.3 µM at Prothrombin.

Turning to `N=C(N)c1cccc(N2CCN(C3CCN(Cc4ccccc4)CC3)C2=O)c1`, the Ki on Coagulation factor X turned out to be 2100 nM; on Prothrombin, 11 µM.

As for `N=C(N)c1cccc(N2CCCCN(C3CCN(Cc4ccccc4)CC3)C2=O)c1`, the Ki on Coagulation factor X amounted to 102 nM; at Prothrombin, 2 µM; at Serine protease 1 [2], 282 nM.

Regarding `N=C(N)c1ccc(N2CCCCN(c3cccc(C(=N)N)c3)C2=O)cc1`, the Ki on Coagulation factor X amounted to 800 nM; on Prothrombin it was 9.3 µM; on Serine protease 1 [2], 120 nM.

For the compound `N=C(N)c1ccc(N2CCCCN(C3CCN(Cc4ccccc4)CC3)C2=O)cc1`, the Ki was 7500 nM on Coagulation factor X, more than 21 µM on Prothrombin and more than 1600 nM on Serine protease 1 [2].
